ChEMBL document CHEMBL1201862, “PubChem BioAssay data set” (2004)
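96-well plates; 48 h exposure; 5 concentrations. Endpoints by linear interpolation between flanking doses. Not reached: highest tested concentration assigned. GI50 = concentration required for 50% inhibition of growth.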 Active and inactive are the calls of the source. Rule as the data show it: active = GI50 up to about 1.1 µM and inactive = higher.

Key:
Experiment in all cases: NCI anticancer screen, dose series, 48 h
786-0 = tested on: 786-0
CAKI-1 = tested on: CAKI-1
DU-145 = tested on: DU-145
HCT-116 = tested on: HCT-116
HOP-92 = tested on: HOP-92
IGROV-1 = tested on: IGROV-1
KM12 = tested on: KM12
MCF7 = tested on: MCF7
MDA-MB-435 = tested on: MDA-MB-435
NCI-H226 = tested on: NCI-H226
NCI-H522 = tested on: NCI-H522
NCI/ADR-RES = tested on: NCI/ADR-RES
OVCAR-3 = tested on: OVCAR-3
OVCAR-4 = tested on: OVCAR-4
SF-295 = tested on: SF-295
SK-MEL-28 = tested on: SK-MEL-28
SK-MEL-2 = tested on: SK-MEL-2
SK-OV-3 = tested on: SK-OV-3
SNB-19 = tested on: SNB-19

| Structure (SMILES) | GI50 (786-0) | GI50 (CAKI-1) | GI50 (DU-145) | GI50 (HCT-116) | GI50 (HOP-92) | GI50 (IGROV-1) | GI50 (KM12) | GI50 (MCF7) | GI50 (MDA-MB-435) | GI50 (NCI-H226) | GI50 (NCI-H522) | GI50 (NCI/ADR-RES) | GI50 (OVCAR-3) | GI50 (OVCAR-4) | GI50 (SF-295) | GI50 (SK-MEL-28) | GI50 (SK-MEL-2) | GI50 (SK-OV-3) | GI50 (SNB-19) |
| --- | --- | --- | --- | --- | --- | --- | --- | --- | --- | --- | --- | --- | --- | --- | --- | --- | --- | --- | --- |
| CN(CC(=O)O)Cc1c(O)c(Cl)cc(Cl)c1Cl | 15.8 µM (inactive) | 61.8 µM (inactive) | 34.4 µM (inactive) | 12.5 µM (inactive) | 23.4 µM (inactive) | 48.1 µM (inactive) | 31.2 µM (inactive) | 17.9 µM (inactive) | 74.8 µM (inactive) | 22.8 µM (inactive) | 27.8 µM (inactive) | 26.8 µM (inactive) | 4.07 µM (inactive) | 33.6 µM (inactive) | 64.9 µM (inactive) | 24.5 µM (inactive) | 27.2 µM (inactive) | > 100 µM (inactive) | 48.4 µM (inactive) |
| COC(=O)C1=C(C(=O)OC)C2OC1c1cc3ccccc3cc12 | 1.76 µM (inactive) | 2.05 µM (inactive) | 7.78 µM (inactive) | 1.74 µM (inactive) | 1.69 µM (inactive) | 5.01 µM (inactive) | 23.7 µM (inactive) | 8.89 µM (inactive) | 7.38 µM (inactive) | 5.15 µM (inactive) | 1.3 µM (inactive) | 10.8 µM (inactive) | 2.88 µM (inactive) | 1.78 µM (inactive) | 18.8 µM (inactive) | 2 µM (inactive) | 15.4 µM (inactive) | 18.8 µM (inactive) | 18.7 µM (inactive) |
| Fc1cccc(F)c1C(Nc1nncs1)Nc1nncs1 | > 100 µM (inactive) | > 100 µM (inactive) | > 100 µM (inactive) | 50.5 µM (inactive) | > 100 µM (inactive) | > 100 µM (inactive) | > 100 µM (inactive) | 97.7 µM (inactive) | 51.3 µM (inactive) | > 100 µM (inactive) | > 100 µM (inactive) | > 100 µM (inactive) | > 100 µM (inactive) | > 100 µM (inactive) | > 100 µM (inactive) | > 100 µM (inactive) | > 100 µM (inactive) | > 100 µM (inactive) | > 100 µM (inactive) |
| CCOC(=O)CN1CC(C2=C(O)CN(CC(=O)OCC)C2=O)=CC1=O | > 100 µM (inactive) | > 100 µM (inactive) | > 100 µM (inactive) | > 100 µM (inactive) | > 100 µM (inactive) | > 100 µM (inactive) | > 100 µM (inactive) | > 100 µM (inactive) | > 100 µM (inactive) | > 100 µM (inactive) | > 100 µM (inactive) | > 100 µM (inactive) | > 100 µM (inactive) | > 100 µM (inactive) | > 100 µM (inactive) | > 100 µM (inactive) | > 100 µM (inactive) | > 100 µM (inactive) | > 100 µM (inactive) |
| CO/N=C1\CCC2(O)C3Cc4ccc(O)c5c4C2(CCN3CC2CC2)[C@H]1O5 (stereo partly specified) | > 100 µM (inactive) | > 100 µM (inactive) | > 100 µM (inactive) | > 100 µM (inactive) | > 100 µM (inactive) | > 100 µM (inactive) | > 100 µM (inactive) | > 100 µM (inactive) | > 100 µM (inactive) | > 100 µM (inactive) | > 100 µM (inactive) | > 100 µM (inactive) | > 100 µM (inactive) | > 100 µM (inactive) | > 100 µM (inactive) | > 100 µM (inactive) | > 100 µM (inactive) | > 100 µM (inactive) | > 100 µM (inactive) |
| CCOC(=O)[C@@]1(C)CC(O)C(=O)N1C (stereo partly specified) | > 100 µM (inactive) | > 100 µM (inactive) | > 100 µM (inactive) | > 100 µM (inactive) | > 100 µM (inactive) | > 100 µM (inactive) | > 100 µM (inactive) | > 100 µM (inactive) | > 100 µM (inactive) | > 100 µM (inactive) | > 100 µM (inactive) | > 100 µM (inactive) | > 100 µM (inactive) | > 100 µM (inactive) | > 100 µM (inactive) | > 100 µM (inactive) | > 100 µM (inactive) | > 100 µM (inactive) | > 100 µM (inactive) |
| O=[N+]([O-])/C(C(Cl)=C(Cl)Cl)=C(/Cl)Sc1ccccc1 | 1.31 µM (inactive) | 2.51 µM (inactive) | 3.32 µM (inactive) | 1.31 µM (inactive) | 2.05 µM (inactive) | 2.01 µM (inactive) | 17.9 µM (inactive) | 1.43 µM (inactive) | 1.86 µM (inactive) | 7.76 µM (inactive) | 1.23 µM (inactive) | 1.08 µM (active) | 2.05 µM (inactive) | 1.62 µM (inactive) | 20 µM (inactive) | 1.72 µM (inactive) | 13.3 µM (inactive) | 20.1 µM (inactive) | 17.7 µM (inactive) |
| COc1cc2c(cc1OCCN1CCN(CCOc3cc4c(cc3OC)C(=O)N3CCC[C@H]3C=N4)CC1)N=C[C@@H]1CCCN1C2=O | 17.8 µM (inactive) | 14 µM (inactive) | 37.5 µM (inactive) | 29.5 µM (inactive) | 0.906 µM (active) | 33.5 µM (inactive) | 30.8 µM (inactive) | 18.2 µM (inactive) | 20.8 µM (inactive) | 19.4 µM (inactive) | 12.1 µM (inactive) | > 100 µM (inactive) | 25.9 µM (inactive) | > 100 µM (inactive) | 8.83 µM (inactive) | 60 µM (inactive) | 26 µM (inactive) | > 100 µM (inactive) | 35.5 µM (inactive) |
| COc1cc(S(=O)(=O)Nc2nc(-c3ccc(N4C(=O)/C(=C/c5ccccc5)N=C4c4ccccc4)cc3)cs2)ccc1Cl | 63.5 µM (inactive) | > 100 µM (inactive) | > 100 µM (inactive) | 36.5 µM (inactive) | 34.4 µM (inactive) | 44.2 µM (inactive) | 50.6 µM (inactive) | 35.6 µM (inactive) | 46.9 µM (inactive) | 62.5 µM (inactive) | 35.3 µM (inactive) | > 100 µM (inactive) | 11.9 µM (inactive) | 31.3 µM (inactive) | > 100 µM (inactive) | 54.7 µM (inactive) | 24.6 µM (inactive) | > 100 µM (inactive) | 50.6 µM (inactive) |
| C=C1C(=O)O[C@@H]2C[C@@]3(C)CCCC(=C)[C@@H]3C[C@H]12.C=C1C(=O)O[C@@H]2C[C@@]3(C)CCC[C@H](C)C3=C[C@H]12 | 1.43 µM (inactive) | 1.69 µM (inactive) | 2.77 µM (inactive) | 1.41 µM (inactive) | 1.9 µM (inactive) | 2.72 µM (inactive) | 2.7 µM (inactive) | 1.73 µM (inactive) | 1.54 µM (inactive) | 5.3 µM (inactive) | 1.38 µM (inactive) | 1.96 µM (inactive) | 1.61 µM (inactive) | 2.7 µM (inactive) | 11.5 µM (inactive) | 1.78 µM (inactive) | 2.09 µM (inactive) | 9.79 µM (inactive) | 9.33 µM (inactive) |
| COc1ccc(C(=O)C#Cc2cn(C3CC(O)C(CO)O3)c(=O)[nH]c2=O)cc1 (stereo unspecified) | 49.7 µM (inactive) | > 100 µM (inactive) | > 100 µM (inactive) | 39.7 µM (inactive) | 21.7 µM (inactive) | > 100 µM (inactive) | > 100 µM (inactive) | 35.5 µM (inactive) | 56.8 µM (inactive) | 32 µM (inactive) | 11.9 µM (inactive) | 42.6 µM (inactive) | 19.2 µM (inactive) | 48.6 µM (inactive) | > 100 µM (inactive) | 20.4 µM (inactive) | 56.4 µM (inactive) | > 100 µM (inactive) | > 100 µM (inactive) |
| Cc1ccc(-c2nc(C)c(C(=O)Nc3ccc(Cl)cc3)s2)cc1 | 15.2 µM (inactive) | 20 µM (inactive) | > 100 µM (inactive) | 18.5 µM (inactive) | 23.5 µM (inactive) | 29.2 µM (inactive) | > 100 µM (inactive) | > 100 µM (inactive) | > 100 µM (inactive) | 20.6 µM (inactive) | 30.5 µM (inactive) | 29.2 µM (inactive) | 24.1 µM (inactive) | 18.3 µM (inactive) | 15.4 µM (inactive) | > 100 µM (inactive) | 34.4 µM (inactive) | 19 µM (inactive) | 20.5 µM (inactive) |
| COc1cc(C2SCC(=O)N2c2ccc(NC(C)=O)cc2)cc(OC)c1OC (stereo unspecified) | > 100 µM (inactive) | 65.2 µM (inactive) | > 100 µM (inactive) | 69.7 µM (inactive) | 48.3 µM (inactive) | > 100 µM (inactive) | > 100 µM (inactive) | 51.3 µM (inactive) | 52.7 µM (inactive) | > 100 µM (inactive) | 71.4 µM (inactive) | 88.3 µM (inactive) | > 100 µM (inactive) | > 100 µM (inactive) | > 100 µM (inactive) | > 100 µM (inactive) | > 100 µM (inactive) | > 100 µM (inactive) | > 100 µM (inactive) |
| COC(=O)C1OC(O[C@H]2CC[C@]3(C)[C@H]4CC=C5[C@@H]6CC(C)(C)CC[C@]6(C(=O)OC)[C@H](O)C[C@@]5(C)[C@]4(C)CC[C@H]3C2(C)C)C(O)C(O)C1O (stereo partly specified) | 8.49 µM (inactive) | 14.2 µM (inactive) | 10 µM (inactive) | 4.4 µM (inactive) | 16.8 µM (inactive) | 12.3 µM (inactive) | 1.67 µM (inactive) | 11 µM (inactive) | 13.1 µM (inactive) | 15 µM (inactive) | 1.57 µM (inactive) | 12.2 µM (inactive) | 10.4 µM (inactive) | 5.68 µM (inactive) | 10.4 µM (inactive) | 11.1 µM (inactive) | 15.1 µM (inactive) | 15 µM (inactive) | 13.9 µM (inactive) |
